The subject of data set [1] is Staphylococcus aureus. As to the kind of experiment: Bactericidal activity against Staphylococcus aureus ATCC 29213. The class given is functional.
Data set [2] concerns Escherichia coli. As to the kind of experiment: Bactericidal activity against Escherichia coli ATCC 25922. The class given is functional.
For data set [3], the system named is Escherichia coli. As to the kind of experiment: Antibacterial activity against Escherichia coli ATCC 25922 assessed as reduction in bacterial growth incubated for 24 hrs by CLSI broth microdilution method. The class given is functional. The conditions noted are these: Escherichia coli, ATCC 25922, 24 h, read-out: MIC.
Data set [4] deals with Staphylococcus aureus. As to the kind of experiment: Antibacterial activity against Staphylococcus aureus ATCC 29213 by CLSI broth microdilution method. The class given is functional.
Data set [5] concerns Klebsiella pneumoniae. As to the kind of experiment: Antibacterial activity against Klebsiella pneumoniae ATCC 10031 assessed as reduction in bacterial growth incubated for 24 hrs by CLSI broth microdilution method. The data set is classed as functional.
Data set [6] deals with Staphylococcus aureus. As to the kind of experiment: Antibacterial activity against Staphylococcus aureus ATCC 6538 incubated for 24 hrs by CLSI broth microdilution method. The class given is functional.
Data set [7] concerns Pseudomonas aeruginosa. As to the kind of experiment: Antibacterial activity against Pseudomonas aeruginosa ATCC 9027 assessed as reduction in bacterial growth incubated for 24 hrs by CLSI broth microdilution method. The class given is functional.
Data set [8] concerns Pseudomonas aeruginosa. As to the kind of experiment: Antibacterial activity against Pseudomonas aeruginosa ATCC 27853 assessed as reduction in bacterial growth incubated for 24 hrs by CLSI broth microdilution method. The data set is classed as functional. As to conditions: Pseudomonas aeruginosa, ATCC 27853, 24 h, read-out: MIC.
Data set [9] has as its system Staphylococcus aureus. As to the kind of experiment: Bactericidal activity against Staphylococcus aureus ATCC 29213 assessed as reduction in bacterial growth incubated for 24 hrs followed by replating on MH broth and further incubated for 24 hrs by CLSI broth microdilution method. The data set is classed as functional. As to conditions: Staphylococcus aureus, ATCC 29213; time 48 hrs; read-out: MBC.

Data set [10] has as its system Staphylococcus epidermidis. As to the kind of experiment: Bactericidal activity against Staphylococcus epidermidis assessed as reduction in bacterial growth incubated for 24 hrs followed by replating on MH broth and further incubated for 24 hrs by CLSI broth microdilution method. The class given is functional. As to conditions: Staphylococcus epidermidis, read-out: MBC.

Data set [11] can be described thus: Selectivity index, ratio of CC50 for human HSF cells to MIC for Bacillus subtilis 168. The class given is toxicity.
Data set [12] relates to Bacillus subtilis. As to the kind of experiment: Bactericidal activity against Bacillus subtilis 168 assessed as reduction in bacterial growth incubated for 24 hrs followed by replating on MH broth and further incubated for 24 hrs by CLSI broth microdilution method. The class given is functional. As to conditions: Bacillus subtilis, 168, 24 h.
A short description of data set [13]: Selectivity index, ratio of CC50 for human HSF cells to MIC for Staphylococcus epidermidis. The data set is classed as toxicity.

Each structure is given as a SMILES string. Values joined by “and” are separate entries in the source; they are usually repeats but may differ in a detail not shown here. Identical values can stand only once.

Consider `CCCOc1c2cc(C[N+](C)(C)C)cc1Cc1cc(C[N+](C)(C)C)cc(c1OCCC)Cc1cc(C[N+](C)(C)C)cc(c1OCCC)Cc1cc(C[N+](C)(C)C)cc(c1OCCC)C2.[Cl-].[Cl-].[Cl-].[Cl-]`, for which the MBC in [1] and in data set [2] was 16 µg/mL each time. Also, the MIC in [3] and in data set [4] was 16 µg/mL in each case.

`CCCOc1c2cc(C[N+](C)(C)CCO)cc1Cc1cc(C[N+](C)(C)CCO)cc(c1OCCC)Cc1cc(C[N+](C)(C)CCO)cc(c1OCCC)Cc1cc(C[N+](C)(C)CCO)cc(c1OCCC)C2.[Cl-].[Cl-].[Cl-].[Cl-]`: the MIC in data set [5] was 100 µg/mL; in [6], at most 10 µg/mL; in [7], 1000 µg/mL; in [3] it was 32 µg/mL; in data set [4], 16 µg/mL. Also, the values for the MBC in data set [1] and in [2] were 16 µg/mL and 256 µg/mL, respectively.

In the case of `CC(C)(C)c1cc2c(OCC(=O)NCCC[N+](C)(C)C)c(c1)Sc1cc(C(C)(C)C)cc(c1OCC(=O)NCCC[N+](C)(C)C)Sc1cc(C(C)(C)C)cc(c1OCC(=O)NCCC[N+](C)(C)C)Sc1cc(C(C)(C)C)cc(c1OCC(=O)NCCC[N+](C)(C)C)S2.[Cl-].[Cl-].[Cl-].[Cl-]`, the MIC in data set [8] and in [3] was above 64 µg/mL throughout. Moreover, the MBC is above 64 µg/mL in [9], 32 µg/mL in data set [10] and 8 µg/mL in [12]. The Ratio in data set [11] is > 16 and 43; in [13] it was 11. The selectivity ratio in data set [13] (HSF cells) was above 16.

Take `CCCCCCCCOc1c2cc(C[N+](C)(C)CCO)cc1Cc1cc(C[N+](C)(C)CCO)cc(c1OCCCCCCCC)Cc1cc(C[N+](C)(C)CCO)cc(c1OCCCCCCCC)Cc1cc(C[N+](C)(C)CCO)cc(c1OCCCCCCCC)C2.[Cl-].[Cl-].[Cl-].[Cl-]`: the minimum inhibitory concentration (MIC) in data set [5] is above 1000 µg/mL; in data set [6] it was above 1000 µg/mL; in [7], 500 µg/mL; in data set [3], 32 µg/mL; in data set [4], 16 µg/mL. For the same compound, the MBC in [1] was 16 µg/mL; in data set [2], 256 µg/mL.

For `CCCCCCCCOc1c2cc(C[N+](C)(C)CCN)cc1Cc1cc(C[N+](C)(C)CCN)cc(c1OCCCCCCCC)Cc1cc(C[N+](C)(C)CCN)cc(c1OCCCCCCCC)Cc1cc(C[N+](C)(C)CCN)cc(c1OCCCCCCCC)C2.[Cl-].[Cl-].[Cl-].[Cl-]`, the MIC in [5], in data set [6], in data set [7] and in data set [3] was above 1000 µg/mL each time.

These data come from ChEMBL document CHEMBL4673355, “Thiacalixarene based quaternary ammonium salts as promising antibacterial agents” (Bioorg Med Chem, 2021).
